Values quoted from earlier work in US6645994B1, “Method of treating dry eye disorders” (Alcon, Inc., priority 2001, dated 2003).

Assays:
[1] = tested on: soluble goblet cell mucins (MUC2, MUC5AC); settings: literature report, Cornea 2000
[2] = tested on: mucin subtype MUC1; settings: literature report, Cornea 2000
[3] = tested on: acyl-CoA synthetase; settings: compared with triacsins A, B and C

| SMILES | secretion of soluble goblet cell mucins (MUC2, MUC5AC) [1] | secretion of mucin subtype MUC1 [2] | relative potency as acyl-CoA synthetase inhibitor among triacsins [3] |
| --- | --- | --- | --- |
| CCCCC[C@H](O)/C=C/C=C\C/C=C\C/C=C\CCCC(=O)O [15(S)-HETE] | inability of 15(S)-HETE to stimulate secretion | effective secretagogue |  |
| CC/C=C/C=C/C=C/C=C/C=NN=NO [Triacsin C, 1-hydroxy-3-(E,E,E,E-2′4′6′8′-undecatetraenylidine) triazene] |  |  | most potent of these compounds |
